Measurements published in article PMC9321663, “The DevTox Germ Layer Reporter Platform: An Assay Adaptation of the Human Pluripotent Stem Cell Test” (Toxics, 2022).
Read-outs that look alike come from different tables or passages of the source.

Tests used:
[1] = test system: SOX17 (endoderm marker) in RUES2-GLR cells; assay: DevTox GLR-Endo assay: increase in percent SOX17-positive cells (AEID 3093, Sox17_up); type: cell-based, human; conditions: for HIT−CALL: tcpl plot AEID3093, COFF 20.3; for Emax: Homo sapiens
Method: (§1) The total test chemical incubation period was 48 h.
(§2) (Supplementary Materials).

[2] = test system: SOX2 (ectoderm and pluripotency marker) in RUES2-GLR cells; assay: DevTox GLR-Endo assay: increase in percent SOX2-positive cells (AEID 3095, Sox2_up); conditions: for MAX_MEAN: tcpl plot AEID3095, maximum mean response; for MAX_MED: tcpl plot AEID3095, maximum median response; for AC50 / Emax: Homo sapiens; for AC50: read-out: ga (winning model); for Emax: read-out: tp (winning model);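 as to all read-outs here: cells exposed to test chemicals for 48 h in total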
[3] = test system: SOX17 (endoderm marker) in RUES2-GLR cells; assay: DevTox GLR-Endo assay: decrease in percent SOX17-positive cells (AEID 3094, Sox17_dn); conditions: for Hit Call: Table S2, SOX17-positive cells, cutoff 3*bmad; for DevTox ACC: Table S2, percent SOX17-positive cells; for HIT−CALL: tcpl plot AEID3094, COFF 20.3; for MAX_MEAN: tcpl plot AEID3094, maximum mean response; for DevTox-GLR Endo ACC: activity concentration at cutoff, SOX17-positive cells; for hit call designation (in words): DevTox GLR-Endo prediction against developmental toxicant classification; for effect on SOX17-positive cells (in words): 48 h exposure during directed endoderm differentiation
Method in brief: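 Readouts are loss of SOX17-positive fraction and reduced cell number in endoderm-differentiating RUES2-GLR cells after 48 h of chemical exposure. Controls: undifferentiated and differentiated cells, 0.2% DMSO, and 1 µM SB431542; at least four biological replicates.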

[4] = test system: H9 embryonic stem cells; conditions: cited from earlier work
[5] = test system: o/c ratio in H9 embryonic stem cells; conditions: Teratogen Index, cited from earlier work; for quickPredict TI: o/c ratio
[6] = test system: RUES2-GLR cells; assay: DevTox GLR-Endo assay: decrease in total cell count, cytotoxicity (AEID 3098, CellCount_dn); conditions: for Emax: Homo sapiens, read-out: Cell Count % Max Inhibition
[7] = test system: BRA (mesoderm marker) in RUES2-GLR cells; assay: DevTox GLR-Endo assay: increase in percent BRA-positive cells (AEID 3096, Bra_up); type: cell-based, human; conditions: for HIT−CALL: tcpl plot AEID3096, COFF 0.774; for MAX_MEAN: tcpl plot AEID3096, maximum mean response; for MAX_MED: tcpl plot AEID3096, maximum median response
Method: as §1, §2

[8] = cited from earlier work; for Development Toxicant Classification: Table S2; for Classification: developmental toxicant classification (Teratogen / Non-Teratogen) of reference and training chemicals, ref DOI per chemical: 10.1093/toxsci/kft239, 10.1093/toxsci/kfaa014, 10.1177/026119290203000204, 10.1038/s41598-020-59542-x; for DT Class.: developmental toxicant classification
[9] = test system: SOX17 in H9 human ESC line; conditions: SOX17 half-maximal inhibition concentration; read-out: hPST IC50; cited from earlier work
[10] = test system: H9 human ESC line; conditions: cited from earlier work
[11] = DevTox GLR-Endo assay: decrease in total cell count, cytotoxicity (AEID 3098, CellCount_dn); conditions: human, RUES2-GLR cells under directed endoderm differentiation
[12] = tcpl plot AEID3093, maximum mean response
[13] = tcpl plot AEID3093, maximum median response
[14] = concentration at cell viability cutoff
[15] = chemicals common with quickPredict
[16] = tcpl plot AEID3093, maximum mean response, read-out: MAX_MEAN
[17] = tcpl plot AEID3093, maximum median response, read-out: MAX_MED
[18] = Homo sapiens, read-out: DevTox % Max Inhibition
[19] = Homo sapiens, read-out: MAX_MEAN
[20] = Homo sapiens, read-out: MAX_MED
[21] = Homo sapiens, read-out: ga (winning model), tcpl plot AEID3094, gain parameter of winning curve fit (log concentration, µM axis), hit calls only (converted)
[22] = Homo sapiens, read-out: tp (winning model)
[23] = Homo sapiens, 48 h, read-out: DevTox-GLR Endo AC50 (µM), SOX17 half-maximal activity concentration, 48 h exposure
[24] = cytotoxicity half-maximal concentration

SMILES	HIT−CALL [1]	MAX_MEAN [2] [Percent Activity]	MAX_MED [2] [Percent Activity]	Hit Call [3]	DevTox ACC ([3]; 48 h exposure) [µM]	HIT−CALL [3]	quickPredict TI [5] [µM]	HIT−CALL [7]	MAX_MEAN [7] [Percent Activity]	MAX_MED [7] [Percent Activity]	Development Toxicant Classification [8]	Classification [8]	DT Class. [8, 15]	Emax [1, 16] [%]	Emax [1, 17] [%]	Emax [3, 18] [%]	Emax [3, 19] [%]	Emax [3, 20] [%]	Emax [6] [%]	Cell Count ACC ([6]; human, 48 h) [µM]	other results
CC(O)CO (stereo not drawn) [1,2-Propylene glycol]	0	0.616	0.577	Negative	>200	0	327552	0	0.919	0.955	Negative	Non-Teratogen	Neg								MAX_MEAN [1, 12]: 8.27 Percent Activity; MAX_MED [1, 13]: 7.58 Percent Activity; DevTox % Max Inhibition ([3]; Table S2, percent SOX17-positive cells relative to DMSO): 5.484%; MAX_MEAN [3]: 3.45 Percent Activity; MAX_MED ([3]; tcpl plot AEID3094, maximum median response): 5.48 Percent Activity; quickPredict CV ([4]; cell viability): 246664 µM; quickPredict CV (µM) [4, 14]: 246,664 µM; quickPredict TI (µM) [5]: 327,552 µM; Cell Count ACC ([6]; Table S2, 48 h exposure): >200 µM; Cell Count % Max Inhibition ([6]; Table S2, cell count relative to DMSO): 12.9966%
CC(C)(c1ccc(O)cc1)c1ccc(O)cc1 [Bisphenol A]	0	4.11	3.32	Positive	31.7467	1					Positive	Teratogen	Pos	9.9	10.7	102	102	102	94.4	21.1157	AC50 [2]: 38 µM; Emax [2]: 3.24%; AC50 [3, 21]: 38.9 µM; Emax [3, 22]: 102%; DevTox-GLR Endo ACC ([3]; 48 h exposure): 31.75 µM; quickPredict CV [4, 14]: 39.4 µM; DevTox-GLR Endo CC ([6]; human, 48 h): 21.12 µM
CS(=O)(=O)OCCCCOS(C)(=O)=O [Busulfan]	0	2.43	2.59	Positive	25.262	1	2.31	0	2.12	2.19	Positive	Teratogen	Pos	7.27	12.6	100	100	100	82.3	5.795	AC50 [2]: 145 µM; Emax [2]: 4.09%; AC50 [3, 21]: 38.9 µM; Emax [3, 22]: 101%; DevTox-GLR Endo ACC ([3]; 48 h exposure): 25.26 µM; quickPredict CV [4, 14]: 4.91 µM; effect on cell count (in words) [6]: significant decreases in cell count; DevTox-GLR Endo CC ([6]; human, 48 h): 5.79 µM
NC(=O)N1c2ccccc2C=Cc2ccccc21 [Carbamazepine]	0	0.534	0.576	Positive	64.024	1	2.29	1	1.14	1.04	Positive	Teratogen	Pos	12.3	12.1	52.2	52.1	52.2	39.1	57.7753	IC50 [9]: 0.08 µM; AC50 [3, 23]: 103 µM; AC50 [3, 21]: 102 µM; Emax [3, 22]: 65.3%; DevTox-GLR Endo ACC ([3]; 48 h exposure): 64.02 µM; hPST TC50 [10, 24]: 0.19 µM; hPST TC50 ([10]; hPST cytotoxicity): 0.19 µM; CC50 at 48 h [11]: 137 µM; DevTox-GLR Endo CC ([6]; human, 48 h): 57.78 µM; DT Class. ([8]; chemicals common with hPST): Pos
C[C@@H]1C[C@H]2[C@@H]3CCC4=CC(=O)C=C[C@]4(C)[C@@]3(F)[C@@H](O)C[C@]2(C)[C@@]1(O)C(=O)CO [Dexamethasone]	0	0.622	0.482	Negative	>200	1	37.7	0	0.923	0.979	Positive	Teratogen	Pos								MAX_MEAN [1, 12]: −0.0942 Percent Activity; MAX_MED [1, 13]: 0.457 Percent Activity; hit call designation (in words) [3]: borderline calls; ga (winning model) ([3]; tcpl plot AEID3094, gain parameter of winning curve fit (log concentration, µM axis), hit calls only): −6.88; MAX_MEAN [3]: 20.7 Percent Activity; tp (winning model) ([3]; tcpl plot AEID3094, top of winning curve fit (Hill or gain-loss), hit calls only): 41.8; Cell Count ACC [6]: 13.83 µM; DevTox-GLR Endo CC [6]: 13.83 µM; effect on cell count (in words) [6]: significant cell loss that did not impact SOX17-positive populations
Cc1cn([C@H]2C=C[C@@H](CO)O2)c(=O)[nH]c1=O [Stavudine]	0	1.54	0.512	Negative	>200	0	32.5	1	1.06	1.06	Positive	Teratogen	Pos	8.07	10.6	11.4	13.5	11.4	23.9	90.2805	hit call designation (in words) [3]: false negative; Emax ([3]; Homo sapiens, read-out: maximum observed effect level class (% max inhibition)): 0 to 20%; effect on cell count (in words) [6]: significant decreases in cell count; DevTox-GLR Endo CC ([6]; human, 48 h): 90.28 µM; effect on cell count (in words) ([6]; human, 48 h): significant cell loss that did not impact SOX17-positive populations
O=C1CCC(N2C(=O)c3ccccc3C2=O)C(=O)N1 (stereo not drawn) [Thalidomide]	0	0.64	0.473	Positive	0.2523	1	1.27	0	0.925	0.968	Positive	Teratogen	Pos	4.62	3.35	79.1	78	79.1	19.5	>200	IC50 [9]: 0.5 µM; effect on SOX17-positive cells (in words) [3]: significant reductions in the SOX17-positive sub-population; effect on SOX17-positive cells (in words) ([3]; listed as thalidomide): concentration-dependent loss of SOX17-positive cells; IC50 ([3]; Homo sapiens, 48 h): 1.71 µM; AC50 [3, 23]: 1.64 µM; AC50 [3, 21]: 1.64 µM; Emax [3, 22]: 81.4%; DevTox-GLR Endo ACC ([3]; 48 h exposure): 0.25 µM; % Max Inhibition ([3]; maximum inhibition of SOX17-positive cells, reference chemical testing, 48 h exposure): 58%; hPST TC50 [10, 24]: >200 µM; hPST TC50 ([10]; hPST cytotoxicity): > 200 µM; CC50 at 48 h [11]: > 200 µM; effect on cell counts (in words) [6]: cell counts remained constant; DT Class. ([8]; chemicals common with hPST): Pos; Developmental Toxicant Classification ([8]; reference chemicals): Positive
